{"source": "paper PMC6848382", "about": "“Characterization of the Bioactivity and Mechanism of Bactenecin Derivatives Against Food-Pathogens” (Frontiers in Microbiology, 2019)", "key": {"Bacillus cereus CMCC6303": {"tested_on": "Bacillus cereus CMCC6303", "type": "cell-based", "protocol": "(§1) The antimicrobial activity of each peptide against food-pathogens was characterized by the minimum inhibitory concentration (MIC) ([Ma et al., 2013]). A logarithmic growth-phase culture of bacteria (1 × 10^6 CFU/mL) was mixed with peptide solutions (final concentration ranging from 0 μM to 256 μM) in 96-well plates. After the 96-well plates were incubated for 24 h at 37°C, optical dispersion (OD) was measured using a microplate reader (Bio-Rad, ıHercules, CA, United States) at 630 nm. […] The broth with bacteria cells was used as the negative control, and un-inoculated broth was used as a positive control. The tests were performed in triplicate using three replicates for each experiment."}, "[1]": {"tested_on": "Staphylococcus aureus ATCC25923", "type": "cell-based", "protocol": "as §1"}, "[2]": {"tested_on": "Salmonella typhimurium C77-31", "type": "cell-based", "protocol": "as §1"}, "[3]": {"tested_on": "Salmonella pullorum C79-13", "type": "cell-based", "conditions": "24 h", "protocol": "as §1"}, "[4]": {"tested_on": "Escherichia coli ATCC25922", "type": "cell-based", "conditions": "ATCC25922, 24 h", "protocol": "as §1"}, "[5]": {"tested_on": "Escherichia coli ATCC25922", "type": "cell-based", "conditions": "for MIC, CaCl2 / MIC, Control / MIC, KCl / MIC, MgCl2 / MIC, NH4Cl / MIC, NaCl: ATCC25922, 24 h", "experimental": "To evaluate the effect of different physiological conditions on the stability of peptides, we determined the salt stability, thermal stability, and enzymatic stability as described in a previous study ([Dong, 2013]; [Sun et al., 2018]). Escherichia coli ATCC25922 grown in the logarithmic phase (1 × 10^6 CFU/mL) was exposed to each peptide at different salt concentrations (150 mM NaCl, 4.5 mM KCl, 6 μM NH4Cl, 1 mM MgCl2, 8 μM ZnCl2, 2 mM CaCl2, and 4 μM FeCl3). The peptides were treated for 1 h at 100°C to test for thermal stability. The peptides were treated with trypsin, pepsin, papain and protease k at a concentration of 1 mg/mL for 1 h at 37°C to test for enzyme stability. The control group consisted of untreated peptides. The subsequent assay was consistent with the MIC assay."}, "[6]": {"tested_on": "Staphylococcus aureus CMCC26074", "type": "cell-based", "protocol": "as §1"}, "[7]": {"tested_on": "Cronobacter sakazakii ATCC29544", "type": "cell-based", "protocol": "as §1"}, "[8]": {"tested_on": "Listeria monocytogenes CMCC54004", "type": "cell-based", "protocol": "as §1"}, "Escherichia coli UB1005": {"tested_on": "Escherichia coli UB1005", "type": "cell-based", "protocol": "as §1"}, "EA. hy 926 cells": {"tested_on": "EA. hy 926 cells", "assay": "Cytotoxicity (CCK-8)", "type": "cell-based, human", "conditions": "CCK-8, 24 h; for EA. hy 926 cell viability: peptide concentration 128 μM", "experimental": "The cytotoxicity of the peptides was tested on the EA. hy 926 cell line by using the Cell Counting Kit-8 (CCK-8, Dojindo, Japan) as described in a previous study ([Sánchez-Gómez et al., 2015]). The EA. Hy 926 cells cultured in the logarithmic growth -phase was then diluted with PBS to a single cell suspension. A 100 μL cell suspension (2 × 10^5 cells) was added to 96-well plates and cultured in an incubator with a 5% CO2 atmosphere at 37°C. The cell culture medium was removed, and the two-fold serial dilutions of peptides prepared using DMEM with 5% FBS were added to the 96-well plates. After 24 h, 100 μL DMEM with 10% CCK-8 was added to the 96-well plates and then cultured for 4 h. The absorbance was measured at 492 nm by using a microplate reader. DMEM served as a positive control and cells mixed with DMEM without peptides as a negative control. Melittin was employed as a control peptide."}, "[9]": {"tested_on": "12 typical food-pathogens", "conditions": "over the 12 food-pathogens of Table 3", "protocol": "as §1\nThe selectivity index (SI), calculated as the ratio of MHC to GM, was used a comparison parameter for the safety and efficacy of peptides."}, "[10]": {"tested_on": "Salmonella typhimurium ATCC14028", "type": "cell-based", "protocol": "as §1"}, "[11]": {"conditions": "Staphylococcus aureus ATCC25923, 1 × 10^6 CFU/mL, 24 h, 37°C, triplicate"}, "[12]": {"conditions": "E. coli ATCC25922, peptides treated with trypsin 1 mg/mL, 1 h, 37°C"}, "[13]": {"conditions": "Staphylococcus aureus CMCC26074, 1 × 10^6 CFU/mL, 24 h, 37°C, triplicate"}}, "note": "Like-named read-outs stand apart in the source and are kept apart here. Residues, ends and D or L forms follow the SMILES beside them. No end group written: not given here."}
{"molecule": "CC[C@H](C)[C@@H]1NC(=O)[C@H](CCCNC(=N)N)NC(=O)[C@@H](NC(=O)[C@H](CC(C)C)NC(=O)[C@@H](N)CCCNC(=N)N)CSSC[C@@H](C(=O)N[C@@H](CCCNC(=N)N)C(N)=O)NC(=O)[C@H](C(C)C)NC(=O)[C@H](CCCNC(=N)N)NC(=O)[C@H]([C@@H](C)CC)NC(=O)[C@H](C(C)C)NC(=O)[C@H](C(C)C)NC1=O", "note": "[L2C3V10C11, bactenecin] (HELM PEPTIDE1{R.L.C.R.I.V.V.I.R.V.C.R.[am]}$PEPTIDE1,PEPTIDE1,3:R3-11:R3$$$V2.0)", "values": [{"measurement": "MIC", "setting": "Bacillus cereus CMCC6303; CMCC6303, 24 h", "value": 64, "unit": "µM"}, {"measurement": "MIC", "setting": "[1]; ATCC25923, 24 h", "value": ">256", "unit": "µM"}, {"measurement": "MIC", "setting": "[2]; murium C77-31, 24 h", "value": ">256", "unit": "µM"}, {"measurement": "MIC", "setting": "[3]", "value": ">256", "unit": "µM"}, {"measurement": "MIC", "setting": "[4]", "value": 4, "unit": "µM"}, {"measurement": "MIC, Heat", "setting": "[5]; ATCC25922, 1 h", "value": 8, "unit": "µM"}, {"measurement": "MIC, Papain", "setting": "[5]; ATCC25922, 1 h", "value": 16, "unit": "µM"}, {"measurement": "MIC, Pepsin", "setting": "[5]; ATCC25922, 1 h", "value": 16, "unit": "µM"}, {"measurement": "MIC, Proteinase k", "setting": "[5]; ATCC25922, 1 h", "value": 32, "unit": "µM"}, {"measurement": "MIC, Trypsin", "setting": "[5]; ATCC25922, 1 h", "value": 64, "unit": "µM"}, {"measurement": "MIC, CaCl2", "setting": "[5]", "value": 8, "unit": "µM"}, {"measurement": "MIC, Control", "setting": "[5]", "value": 4, "unit": "µM"}, {"measurement": "MIC, KCl", "setting": "[5]", "value": 4, "unit": "µM"}, {"measurement": "MIC, MgCl2", "setting": "[5]", "value": 4, "unit": "µM"}, {"measurement": "MIC, NH4Cl", "setting": "[5]", "value": 4, "unit": "µM"}, {"measurement": "MIC, NaCl", "setting": "[5]", "value": 16, "unit": "µM"}, {"measurement": "MIC", "setting": "[6]; CMCC26074, 24 h", "value": ">256", "unit": "µM"}, {"measurement": "MIC", "setting": "[7]; ATCC29544, 24 h", "value": 256, "unit": "µM"}]}
{"molecule": "RKRRIVVIRRKR-NH2 [K2R3R10K11]", "values": [{"measurement": "MIC", "setting": "[8]; CMCC54004, 24 h", "value": 32, "unit": "µM"}, {"measurement": "MIC", "setting": "Escherichia coli UB1005; Escherichia coli UB1005, 1 × 10^6 CFU/mL, 24 h, 37°C, triplicate", "value": 256, "unit": "µM"}, {"measurement": "EA. hy 926 cell viability", "setting": "EA. hy 926 cells", "value": 85, "unit": "%"}, {"measurement": "GM (geometric mean of MICs)", "setting": "[9]", "value": 191.8, "unit": "µM"}, {"measurement": "MIC", "setting": "Bacillus cereus CMCC6303; CMCC6303, 24 h", "value": 128, "unit": "µM"}, {"measurement": "MIC", "setting": "[1]; [11]", "value": ">256", "unit": "µM"}, {"measurement": "MIC", "setting": "[2]; Salmonella typhimurium C77-31, 1 × 10^6 CFU/mL, 24 h, 37°C, triplicate", "value": ">256", "unit": "µM"}, {"measurement": "MIC", "setting": "[3]; Salmonella pullorum C79-13, 1 × 10^6 CFU/mL, 37°C, triplicate", "value": 256, "unit": "µM"}, {"measurement": "MIC", "setting": "[10]; ATCC14028, 24 h", "value": 128, "unit": "µM"}, {"measurement": "MIC", "setting": "[4]", "value": 8, "unit": "µM"}, {"measurement": "MIC, Heat", "setting": "[5]; ATCC25922, 1 h", "value": 16, "unit": "µM"}, {"measurement": "MIC, Papain", "setting": "[5]; ATCC25922, 1 h", "value": 8, "unit": "µM"}, {"measurement": "MIC, Pepsin", "setting": "[5]; ATCC25922, 1 h", "value": 32, "unit": "µM"}, {"measurement": "MIC, Proteinase k", "setting": "[5]; ATCC25922, 1 h", "value": 8, "unit": "µM"}, {"measurement": "MIC, CaCl2", "setting": "[5]", "value": 16, "unit": "µM"}, {"measurement": "MIC, Control", "setting": "[5]", "value": 8, "unit": "µM"}, {"measurement": "MIC, KCl", "setting": "[5]", "value": 8, "unit": "µM"}, {"measurement": "MIC, MgCl2", "setting": "[5]", "value": 8, "unit": "µM"}, {"measurement": "MIC, NH4Cl", "setting": "[5]", "value": 8, "unit": "µM"}, {"measurement": "MIC, NaCl", "setting": "[5]", "value": 32, "unit": "µM"}, {"measurement": "MIC, Trypsin", "setting": "[5]; [12]", "value": ">256", "unit": "µM"}, {"measurement": "MIC", "setting": "[6]; [13]", "value": ">256", "unit": "µM"}, {"measurement": "MIC", "setting": "[7]; Cronobacter sakazakii ATCC29544, 1 × 10^6 CFU/mL, 24 h, 37°C, triplicate", "value": ">256", "unit": "µM"}]}
{"molecule": "RWKRIVVIRKRR-NH2 [W2K3K10R11]", "values": [{"measurement": "MIC", "setting": "[8]; Listeria monocytogenes CMCC54004, 1 × 10^6 CFU/mL, 24 h, 37°C, triplicate", "value": 128, "unit": "µM"}, {"measurement": "MIC", "setting": "Escherichia coli UB1005; UB1005, 24 h", "value": 256, "unit": "µM"}, {"measurement": "EA. hy 926 cell viability", "setting": "EA. hy 926 cells", "value": 83, "unit": "%"}, {"measurement": "GM (geometric mean of MICs)", "setting": "[9]", "value": 170.0, "unit": "µM"}, {"measurement": "MIC", "setting": "Bacillus cereus CMCC6303; Bacillus cereus CMCC6303, 1 × 10^6 CFU/mL, 24 h, 37°C, triplicate", "value": 128, "unit": "µM"}, {"measurement": "MIC", "setting": "[1]; [11]", "value": ">256", "unit": "µM"}, {"measurement": "MIC", "setting": "[2]; murium C77-31, 24 h", "value": 256, "unit": "µM"}, {"measurement": "MIC", "setting": "[3]", "value": 256, "unit": "µM"}, {"measurement": "MIC", "setting": "[10]; Salmonella typhimurium ATCC14028, 1 × 10^6 CFU/mL, 24 h, 37°C, triplicate", "value": 128, "unit": "µM"}, {"measurement": "MIC", "setting": "[4]", "value": 4, "unit": "µM"}, {"measurement": "MIC, Heat", "setting": "[5]; ATCC25922, 1 h", "value": 16, "unit": "µM"}, {"measurement": "MIC, Papain", "setting": "[5]; ATCC25922, 1 h", "value": 4, "unit": "µM"}, {"measurement": "MIC, Pepsin", "setting": "[5]; ATCC25922, 1 h", "value": 16, "unit": "µM"}, {"measurement": "MIC, Proteinase k", "setting": "[5]; ATCC25922, 1 h", "value": 8, "unit": "µM"}, {"measurement": "MIC, CaCl2", "setting": "[5]", "value": 4, "unit": "µM"}, {"measurement": "MIC, Control", "setting": "[5]", "value": 4, "unit": "µM"}, {"measurement": "MIC, KCl", "setting": "[5]", "value": 4, "unit": "µM"}, {"measurement": "MIC, MgCl2", "setting": "[5]", "value": 4, "unit": "µM"}, {"measurement": "MIC, NH4Cl", "setting": "[5]", "value": 4, "unit": "µM"}, {"measurement": "MIC, NaCl", "setting": "[5]", "value": 8, "unit": "µM"}, {"measurement": "MIC, Trypsin", "setting": "[5]; [12]", "value": ">256", "unit": "µM"}, {"measurement": "MIC", "setting": "[6]; [13]", "value": ">256", "unit": "µM"}, {"measurement": "MIC", "setting": "[7]; ATCC29544, 24 h", "value": 256, "unit": "µM"}]}
{"molecule": "melittin [reference compound]", "values": [{"measurement": "Cytotoxicity", "setting": "EA. hy 926 cells; at 16 μM", "value": 100, "unit": "%"}]}
